The assay addresses Histone-lysine N-methyltransferase KMT5B (Homo sapiens, UniProt Q4FZB7). Put plainly: Inhibition of human SUV420H1 transcript variant 2 using Nucleosomes and [3H]SAM as substrate incubated for 30 mins to 1 hr by HotSpot kinase assay.

Chain of Histone-lysine N-methyltransferase KMT5B (Q4FZB7 whole entry): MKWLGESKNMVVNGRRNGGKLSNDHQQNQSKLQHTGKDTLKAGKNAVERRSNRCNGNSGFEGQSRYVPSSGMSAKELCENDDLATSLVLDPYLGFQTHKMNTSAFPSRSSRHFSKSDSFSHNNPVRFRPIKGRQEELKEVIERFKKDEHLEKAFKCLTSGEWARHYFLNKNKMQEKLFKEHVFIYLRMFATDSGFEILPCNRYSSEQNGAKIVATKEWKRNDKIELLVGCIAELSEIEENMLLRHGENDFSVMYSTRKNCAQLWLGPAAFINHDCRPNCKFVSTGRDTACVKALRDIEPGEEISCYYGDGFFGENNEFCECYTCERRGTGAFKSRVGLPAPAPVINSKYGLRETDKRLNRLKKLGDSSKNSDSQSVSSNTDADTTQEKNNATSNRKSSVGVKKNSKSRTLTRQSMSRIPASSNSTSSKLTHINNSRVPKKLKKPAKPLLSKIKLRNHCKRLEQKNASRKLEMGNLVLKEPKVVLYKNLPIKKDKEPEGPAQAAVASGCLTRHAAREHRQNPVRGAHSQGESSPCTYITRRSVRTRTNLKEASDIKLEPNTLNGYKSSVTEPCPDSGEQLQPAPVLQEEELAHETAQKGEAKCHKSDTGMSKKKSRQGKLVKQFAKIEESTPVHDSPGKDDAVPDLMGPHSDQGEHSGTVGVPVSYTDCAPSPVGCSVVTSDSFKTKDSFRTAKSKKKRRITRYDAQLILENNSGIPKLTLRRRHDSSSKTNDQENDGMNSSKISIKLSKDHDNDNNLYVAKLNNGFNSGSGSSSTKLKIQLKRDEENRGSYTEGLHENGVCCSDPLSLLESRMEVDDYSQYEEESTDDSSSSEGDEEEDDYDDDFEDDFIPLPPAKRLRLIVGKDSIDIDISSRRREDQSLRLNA

Take `Cc1cc(C)c(CNC(=O)c2cc(Cl)c3c(c2C)O[C@@](C)([C@H]2CC[C@H](N(C)C)CC2)O3)c(=O)[nH]1` [(2R)-7-chloro-2-[trans-4-(dimethylamino)cyclohexyl]-N-[(4,6-dimethyl-2-oxo-1,2-dihydropyridin-3-yl)methyl]-2,4-dimethyl-1,3-benzodioxole-5-carboxamide (Valemetostat)]: the concentration for half-maximal inhibition (IC50) (in general, the midpoint of a concentration-inhibition curve) stood at 1000 nM.

Source of the values: BindingDB's records for PubMed 28741798 (Daiichi Sankyo Co., Ltd).
